Source: patent US20260364072A1, “METHODS FOR PROMOTING EXPANSION OF HUMAN CD34+ CELLS IN VIVO AND FOR PROMOTING NEURAL REGENERATION” (THE REGENTS OF THE UNIVERSITY OF CALIFORNIA, priority 2023, published 2026)

Assays:
[1] = test system: KG-1a, MOLM-13 and HL-60 cells (SF3B family members, PTK2B-202); assay: Splice isoform biomarker qRT-PCR in human AML cell lines; type: cell-based; conditions: 1 μM, 4 hr
Procedure: For quantitative analysis of splice isoform expression, RNA editing rates, and whole gene expression by qRT-PCR, cells or tissue fragments were harvested in RNA lysis buffer and total RNA was extracted using RNeasy mini or micro extraction kits (QIAGEN, Germantown, MD) following the manufacturer's protocol including a DNase incubation step to digest any trace genomic DNA present. Levels of ADAR1 variants and LSC-specific transcripts were quantified by qRT-PCR as previously described.^14 RNA-editing site-specific qRT-PCR (RESSqPCR) was performed for variants in AZIN1 transcripts.^53 Additional species-specific primers were also designed to quantify intron retention rates in cells treated with Rebecsinib as a biomarker of response to RNA splicing modulation. Specifically, for the two-step SYBR-green based assays, as previously described,^7,14,53 100-1000 ng of RNA were subjected to cDNA synthesis using the SUPERSCRIPT III™ (ThermoFisher Scientific) kit followed by qRT-PCR using SYBR GreenER (ThermoFisher Scientific) master mix according to the manufacturer's recommended procedures. qRT-PCR was performed using SYBR GREENER SUPER MIX™ (Life Technologies) on BioRad iQ5™, C1000 TOUCH™, or BioRad CFX384™ instruments. Human splice isoform-specific, RNA editing site-specific qPCR (RESSqPCR)^53. Primer sets that have not been previously published were designed and tested for efficiency followed by analyses in samples exposed to Rebecsinib, with species-specific HPRT primers used as controls. […] Relative mRNA expression values were calculated using the 2^−ΔCT method, with normalization to untreated or vehicle-treated controls.^54
For multi-species biomarker development and transcript variant-specific qRT-PCR experiments, human AML cell lines KG-1a, MOLM-13, and HL-60, and rat leukemia cells RBL-1 were grown to confluence and treated with 1 μM Rebecsinib for 4 hr. Cells were collected and lysed in Qiagen RNA lysis buffer, and analyzed using the species-specific primers and qRT-PCR procedures described above.

[2] = test system: RNA editing; assay: Whole transcriptome RNA editing analysis of CD34+ cells from sAML50261 engrafted mice; type: in vivo, human cells in mice; conditions: mice treated with 5 or 10 mg/kg
Procedure: FIG. 30E illustrates a whole transcriptome-based RNA editing analyses of previously-described RNA-seq data^14 generated from CD34^+ cells isolated from the spleens of sAML50261 engrafted mice treated with Rebecsinib or vehicle;
For RNA editing analyses of whole transcriptome sequencing data, previous datasets were utilized from CD34^+ cells isolated from the spleens of sAML50261-engrafted mice treated once weekly with Rebecsinib in a dose-response assay (5 or 10 mg/kg),^14 along with CD34^+ cells harvested from mice that were serially transplanted with CD34+ cells from sAML50261-engrafted mice that had been treated twice weekly with Rebecsinib at 10 mg/kg (no further treatment was delivered to serial transplant recipients). Due to limiting number of cells remaining after treatment, cells were pooled from n=4 to 5 mice per condition for sequencing. RNA editing analysis was performed as previously described.^5

[3] = Rabbit single-dose toxicokinetic study; type: in vivo, New Zealand white rabbits; conditions: IV bolus
Procedure: Pre-IND PD and toxicokinetic (TK) studies (FIG. 4D) were enabled by scalable Rebecsinib synthesis^34 and development of an optimized formulation for in vivo biodistribution (5% w/v EtOH, 5% w/v Kolliphor HS15 in 0.9% Sodium Chloride). In PK studies, Rebecsinib was detectable in rat, rabbit, and non-human primate (NHP) plasma following IV bolus administration. In rat TK studies, Rebecsinib was quantifiable up to 1-hour post-dose at 1 mg/kg and up to 4 hours post-dose at 3, 5, and 8 mg/kg (FIG. 4E). […] Rebecsinib T1/2 values were 0.342, 0.447, 0.313, and 0.530 hours at 1, 3, 5, and 8 mg/kg, respectively. […] Following 3, 10, and 20 mg/kg boluses, Rebecsinib was quantifiable in plasma 1 hour post-dose and could be detected up to 8 hours post-dosing with 40 mg/kg (FIG. 4F). […] Following 3, 10, 15, and 20 mg/kg of Rebecsinib, quantifiable plasma concentrations of Rebecsinib were observed through 8 hrs post-dose (FIG. 4G).
(FIG. 29D) Schematic diagram outlining multispecies toxicokinetic (TK) and pharmacodynamic studies in mammalian species treated in vivo with a single dose of Rebecsinib. Toxicokinetic analyses were performed in rats (n=6 per sex, per group), rabbits (n=2 per sex, per group), and non-human primates (NHPs, n=1 per sex, per group) and pharmacodynamic splice isoform quantification studies were performed in peripheral blood mononuclear cells (PBMCs) from NHP.
(FIG. 29E, FIG. 29F) For toxicokinetic analyses, rats (FIG. 29E) and rabbits (FIG. 29F) were given a single injection of Rebecsinib at 1-40 mg/kg, or vehicle control, and blood samples were drawn at regular intervals to determine plasma concentrations of the compound over 8 hr after treatment.
Single-dose TK studies were performed in Sprague Dawley rats (Charles River Labs, South San Francisco, CA), New Zealand white rabbits (BASi/Inotiv, West Lafayette, IN), and cynomolgus monkeys (BASi/Inotiv). Rat and rabbit studies included toxicology analyses, quantification of plasma levels of Rebecsinib, and necropsies to evaluate organ integrity after treatment. For NHP studies, health and ophthalmological evaluations were performed before and after dosing with Rebecsinib, and blood samples were collected for quantification of plasma levels of Rebecsinib and biomarker studies in PBMCs from treated and control animals. All monkeys were returned to the animal colony after the end of the observation period. Toxicokinetic values including mean plasma concentrations and t1/2 values were calculated according to CRO-approved protocols (Charles River and BASi).

[4] = test system: AZIN1 transcript; assay: AZIN1 transcript editing by RESSqPCR in TF1a cells; type: cell-based, human; conditions: shADAR1-transduced cells treated with Rebecsinib compared with vehicle controls
From the text: For lentivirus-mediated knockdown of human ADAR1 in ADAR1 activation and RNA editing biomarker studies of the nanoluc-GFP reporter and endogenous transcripts, human leukemia cells were stably transduced with the lentiviral shRNA vectors targeting ADAR1 (shADAR1) or scrambled control (shCtrl) to ablate endogenous ADAR1 expression. The shRNA plasmids targeting ADAR1 (shADAR1) as well as the scrambled control (shCtrl) were purchased from VectorBuilder (Chicago, IL) (shCtrl: […] (SEQ ID NO:3) and shADAR1: […]) (SEQ ID NO:4). […] Viral titers were assessed by qRT-PCR and transduction efficiency was tested in 293T cells. […]
For quantitative analysis of splice isoform expression, RNA editing rates, and whole gene expression by qRT-PCR, cells or tissue fragments were harvested in RNA lysis buffer and total RNA was extracted using RNeasy mini or micro extraction kits (QIAGEN, Germantown, MD) following the manufacturer's protocol including a DNase incubation step to digest any trace genomic DNA present. Levels of ADAR1 variants and LSC-specific transcripts were quantified by qRT-PCR as previously described.^14 RNA-editing site-specific qRT-PCR (RESSqPCR) was performed for variants in AZIN1 transcripts.^53 Additional species-specific primers were also designed to quantify intron retention rates in cells treated with Rebecsinib as a biomarker of response to RNA splicing modulation. […]

Structure (SMILES): CC[C@H](OC)[C@@H](C)[C@H]1O[C@@H]1[C@@H](O)[C@H](C)/C=C/C=C(\C)[C@H]1OC(=O)C[C@H](O)CC[C@@](C)(O)[C@@H](OC(C)=O)/C=C/[C@@H]1C [Rebecsinib]
- expression of PTK2B-202 isoform [1]: Decreased expression of the LSC-related PTK2B-202 isoform
- intronic retention of SF3B family members ([1]; KG-1a, MOLM-13 and HL-60): significant upregulation of intronic retention of SF3B family members
- SF3B3 intron retention response ([1]; across all cell lines): most potent and consistent response
- RNA editing activity [2]: global downregulation of RNA editing activity that occurred in a dose-responsive manner
- time quantifiable in plasma post-dose ([3]; 3 mg/kg): 1 h
- time quantifiable in plasma post-dose ([3]; 10 mg/kg): 1 h
- time quantifiable in plasma post-dose ([3]; 20 mg/kg): 1 h
- last time detected in plasma post-dosing ([3]; 40 mg/kg): up to 8 hours
- half-life ([3]; plasma, read-out: plasma t1/2): 7.2 to 53.4 min
- AZIN1 transcript editing activity (RESSqPCR) [4]: low levels of AZIN1 transcript editing activity
